Laboratory results as given in patent publication US10385057B2, “Pyrazole compounds and methods of making and using same” (Lundbeck La Jolla Research Center, Inc., priority 2015, dated 2019).

Tests used:
FAAH = target: T1, FAAH (Mus musculus, UniProt O08914); test: In vitro competitive activity-based protein profiling, mouse FAAH; assay type: biochemical; conditions: for inhibition at 1 µM: read-out: FAAH % inh. 1 μM (mouse)
T1 construct: mouse brain membrane fraction or cell lysates for mouse assays; from tissue
T1 sequence (O08914 1-579): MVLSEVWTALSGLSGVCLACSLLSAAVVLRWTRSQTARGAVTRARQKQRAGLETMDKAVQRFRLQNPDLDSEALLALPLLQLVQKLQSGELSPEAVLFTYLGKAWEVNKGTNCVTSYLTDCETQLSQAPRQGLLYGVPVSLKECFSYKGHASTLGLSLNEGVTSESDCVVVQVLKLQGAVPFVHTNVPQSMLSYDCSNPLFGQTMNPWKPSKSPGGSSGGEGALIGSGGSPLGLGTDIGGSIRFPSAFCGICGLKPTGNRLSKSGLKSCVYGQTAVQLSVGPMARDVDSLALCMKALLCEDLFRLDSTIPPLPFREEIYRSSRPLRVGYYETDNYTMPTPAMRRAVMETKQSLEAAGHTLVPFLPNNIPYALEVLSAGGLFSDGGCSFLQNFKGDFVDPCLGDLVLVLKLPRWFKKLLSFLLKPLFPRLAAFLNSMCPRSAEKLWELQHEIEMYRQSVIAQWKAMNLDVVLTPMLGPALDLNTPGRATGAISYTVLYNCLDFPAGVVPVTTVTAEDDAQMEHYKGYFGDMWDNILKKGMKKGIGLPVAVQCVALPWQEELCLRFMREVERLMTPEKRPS
Outline: (§1)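 Mouse brain membranes or cell lysates (mouse) and human prefrontal cortex or cell membrane fractions (human), 1.0 mg/mL protein, preincubated with inhibitor 30 min at 37 °C, then FP-Rh or HT-01 probe 30 min at 37 °C. SDS-PAGE; MAGL and FAAH activity from in-gel fluorescence band intensity.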

MAGL [1] = target: T2, MAGL (Mus musculus, UniProt O35678); test: Mouse brain proteomes from inhibitor treated mice, MAGL; assay type: in vivo; conditions: oral gavage, brain 4 h after administration, read-out: MAGL % inh. 5 mg/kg (mouse)
T2 construct: mouse brain membrane fraction or cell lysates for mouse assays; from tissue
T2 sequence (O35678 1-303): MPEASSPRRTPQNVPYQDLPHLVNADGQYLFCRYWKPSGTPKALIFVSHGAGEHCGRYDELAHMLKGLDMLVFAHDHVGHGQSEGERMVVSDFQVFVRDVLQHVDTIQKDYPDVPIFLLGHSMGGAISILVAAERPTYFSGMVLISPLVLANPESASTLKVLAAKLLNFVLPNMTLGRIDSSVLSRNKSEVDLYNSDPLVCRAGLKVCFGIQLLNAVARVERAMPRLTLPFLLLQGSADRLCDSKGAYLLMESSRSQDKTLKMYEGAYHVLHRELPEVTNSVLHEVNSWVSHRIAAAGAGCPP
Experimental: Preparation of Mouse Brain Proteomes from Inhibitor Treated Mice.
Inhibitors were administered to wild-type C57Bl/6J by oral gavage in a vehicle of polyethylene glycol. Each animal was sacrificed 4 h following administration and brain proteomes were prepared and analyzed according to previously established methods (See Niphakis, M. J., et al. (2011) ACS Chem. Neurosci. and Long, J. Z., et al. Nat. Chem. Biol. 5:37-44).

MAGL [2] = target: T2, MAGL; test: In vitro competitive activity-based protein profiling, mouse MAGL; assay type: biochemical; conditions: for inhibition at 1 µM: read-out: MAGL % inh. 1 μM (mouse)
Outline: as §1

| Structure (SMILES) | inhibition at 1 µM (FAAH; 1 μM) [%] | inhibition at 5 mg/kg (MAGL [1]) [%] | inhibition at 1 µM (MAGL [2]; 1 μM) [%] | IC50 (FAAH) [nM] | IC50 (MAGL [2]) [nM] | FAAH % inh. 1 μM (mouse) (FAAH; 1 μM) | MAGL % inh. 1 μM (mouse) (MAGL [2]; 1 μM) |
| --- | --- | --- | --- | --- | --- | --- | --- |
| NC(=O)c1cnn(C(=O)N2CCC3(CCN(Cc4cc(Cl)ccc4Cl)C3)C2)c1 (centres unmarked) [Example 39, 1-(7-(2,5-dichlorobenzyl)-2,7-diazaspiro[4.4]nonane-2-carbonyl)-1H-pyrazole-4-carboxamide] | ≥ 75 | ≥ 75 | ≥ 75 | – | – | – | – |
| NC(=O)c1cnn(C(=O)N2CCC3(CCN(Cc4cccc(C(F)(F)F)c4)C3)C2)c1 (centres unmarked) [Example 41, 1-(7-(3-(trifluoromethyl)benzyl)-2,7-diazaspiro[4.4]nonane-2-carbonyl)-1H-pyrazole-4-carboxamide] | ≥ 75 | ≥ 75 | ≥ 75 | ≤ 100 | 100 to 1000 | – | – |
| NC(=O)c1cnn(C(=O)N2CCC3(CCN(Cc4cc(Cl)cc(C(F)(F)F)c4)C3)C2)c1 (centres unmarked) [Example 43, 1-(7-(3-chloro-5-(trifluoromethyl)benzyl)-2,7-diazaspiro[4.4]nonane-2-carbonyl)-1H-pyrazole-4-carboxamide] | ≥ 75 | ≥ 75 | ≥ 75 | ≤ 100 | ≤ 100 | – | – |
| NC(=O)c1cnn(C(=O)N2CCC3(CCN(Cc4ccc(N5CCOCC5)cc4C(F)(F)F)C3)C2)c1 (centres unmarked) [Example 45, 1-(7-(4-morpholino-2-(trifluoromethyl)benzyl)-2,7-diazaspiro[4.4]nonane-2-carbonyl)-1H-pyrazole-4-carboxamide] | ≥ 75 | ≥ 75 | ≥ 75 | ≤ 100 | 100 to 1000 | – | – |
| O=C(c1cnn(C(=O)N2CCC3(CCN(Cc4ccc(N5CCOCC5)cc4C(F)(F)F)C3)C2)c1)N1CCCC1 (centres unmarked) [Example 50, (1-(7-(4-morpholino-2-(trifluoromethyl)benzyl)-2,7-diazaspiro[4.4]nonane-2-carbonyl)-1H-pyrazol-4-yl)(pyrrolidin-1-yl)methanone] | ≥ 75 | 0 to 25 | ≥ 75 | ≤ 100 | 100 to 1000 | – | – |
| CNC(=O)c1cnn(C(=O)N2C[C@H]3C[C@@H](N(C)Cc4ccc(C(F)(F)F)cc4)C[C@H]3C2)c1 [Example 54, N-methyl-1-(cis-5-(methyl(4-(trifluoromethyl)benzyl)amino)octahydrocyclopenta[c]pyrrole-2-carbonyl)-1H-pyrazole-4-carboxamide] | ≥ 75 | ≥ 75 | ≥ 75 | ≤ 100 | 100 to 1000 | – | – |
| CN(Cc1ccc(C(F)(F)F)cc1)[C@@H]1C[C@@H]2CN(C(=O)n3cc(C(N)=O)cn3)C[C@@H]2C1 [Example 55, 1-(cis-5-(methyl(4-(trifluoromethyl)benzyl)amino)octahydrocyclopenta[c]pyrrole-2-carbonyl)-1H-pyrazole-4-carboxamide] | ≥ 75 | ≥ 75 | ≥ 75 | ≤ 100 | ≤ 100 | – | – |
| CN(Cc1ccccc1Cl)[C@@H]1C[C@@H]2CN(C(=O)n3cc(Cl)cn3)C[C@@H]2C1 [Example 59, (4-chloro-1H-pyrazol-1-yl)(trans-5-((2-chlorobenzyl)(methyl)amino)hexahydrocyclopenta[c]pyrrol-2(1H)-yl)methanone] | – | ≥ 75 | – | ≤ 100 | ≤ 100 | A (% inhibition greater than or equal to 75%) | A (% inhibition greater than or equal to 75%) |
| CN(Cc1ccccc1Cl)[C@@H]1C[C@@H]2CN(C(=O)n3cc(C(N)=O)cn3)C[C@@H]2C1 [Example 88, 1-(cis-5-((2-chlorobenzyl)(methyl)amino)octahydrocyclopenta[c]pyrrole-2-carbonyl)-1H-pyrazole-4-carboxamide] | ≥ 75 | ≥ 75 | ≥ 75 | ≤ 100 | 100 to 1000 | – | – |
| CN(Cc1cc(Cl)ccc1C(F)(F)F)[C@@H]1C[C@@H]2CN(C(=O)n3cc(C(N)=O)cn3)C[C@@H]2C1 [Example 219, 1-(cis-5-((5-chloro-2-(trifluoromethyl)benzyl)(methyl)amino)octahydrocyclopenta[c]pyrrole-2-carbonyl)-1H-pyrazole-4-carboxamide] | ≥ 75 | – | ≥ 75 | – | – | – | – |
| CN(Cc1ccc(C(F)(F)F)c(N2CCCC2)c1)[C@@H]1C[C@@H]2CN(C(=O)n3cc(C(N)=O)cn3)C[C@@H]2C1 [Example 221, 1-(cis-5-(methyl(3-(pyrrolidin-1-yl)-4-(trifluoromethyl)benzyl)amino)octahydrocyclopenta[c]pyrrole-2-carbonyl)-1H-pyrazole-4-carboxamide] | ≥ 75 | – | ≥ 75 | – | – | – | – |
| CN(Cc1cc(N2CCCC2)cc(C(F)(F)F)c1)[C@@H]1C[C@@H]2CN(C(=O)n3cc(C(N)=O)cn3)C[C@@H]2C1 [Example 222, 1-(cis-5-(methyl(3-(pyrrolidin-1-yl)-5-(trifluoromethyl)benzyl)amino)octahydrocyclopenta[c]pyrrole-2-carbonyl)-1H-pyrazole-4-carboxamide] | ≥ 75 | – | ≥ 75 | – | – | – | – |
| CN(Cc1ccc(-c2cnccn2)cc1C(F)(F)F)[C@H]1C[C@@H]2CN(C(=O)n3cc(C(N)=O)cn3)C[C@@H]2C1 [Example 223, 1-(trans-5-(methyl(4-(pyrazin-2-yl)-2-(trifluoromethyl)benzyl)amino)octahydrocyclopenta[c]pyrrole-2-carbonyl)-1H-pyrazole-4-carboxamide] | ≥ 75 | – | ≥ 75 | – | – | – | – |
| CN(Cc1ccc(-c2nccs2)cc1C(F)(F)F)[C@H]1C[C@@H]2CN(C(=O)n3cc(C(N)=O)cn3)C[C@@H]2C1 [Example 224, 1-(trans-5-(methyl(4-(thiazol-2-yl)-2-(trifluoromethyl)benzyl)amino)octahydrocyclopenta[c]pyrrole-2-carbonyl)-1H-pyrazole-4-carboxamide] | ≥ 75 | – | ≥ 75 | – | – | – | – |
| CN(Cc1ccc(-c2cccnn2)cc1C(F)(F)F)[C@H]1C[C@@H]2CN(C(=O)n3cc(C(N)=O)cn3)C[C@@H]2C1 [Example 225, 1-(trans-5-(methyl(4-(pyridazin-3-yl)-2-(trifluoromethyl)benzyl)amino)octahydrocyclopenta[c]pyrrole-2-carbonyl)-1H-pyrazole-4-carboxamide] | 50 to 75 | – | ≥ 75 | – | – | – | – |
| CN(Cc1ccc(-c2cnccn2)cc1C(F)(F)F)[C@@H]1C[C@@H]2CN(C(=O)n3cc(C(N)=O)cn3)C[C@@H]2C1 [Example 226, 1-(cis-5-(methyl(4-(pyrazin-2-yl)-2-(trifluoromethyl)benzyl)amino)octahydrocyclopenta[c]pyrrole-2-carbonyl)-1H-pyrazole-4-carboxamide] | ≥ 75 | – | ≥ 75 | – | – | – | – |
| CN(Cc1ccc(-c2nccs2)cc1C(F)(F)F)[C@@H]1C[C@@H]2CN(C(=O)n3cc(C(N)=O)cn3)C[C@@H]2C1 [Example 227, 1-(cis-5-(methyl(4-(thiazol-2-yl)-2-(trifluoromethyl)benzyl)amino)octahydrocyclopenta[c]pyrrole-2-carbonyl)-1H-pyrazole-4-carboxamide] | ≥ 75 | – | ≥ 75 | – | – | – | – |
